Patent US20220324770A1, “NITRIFICATION INHIBITORS” (The University of Melbourne, priority 2019, published 2022)

Columns and labels:
[1] = test system: Horsham soil; experiment: Soil microcosm incubation (nitrification of applied ammonium), Horsham soil
Protocol: (§1) The soil used in this study was collected from four different locations in Victoria, Australia: (i) a wheat cropping soil from Horsham (36° 45′S, 142° 07′ E), (ii) a rotational cropping soil from Dahlen (36° 37′S, 142° 09′ E), (iii) a vegetable growing soil from Clyde (38° 08′S, 145° 20′ E), and (iv) a pasture soil from Terang (38° 15′S, 142° 52′E). In addition, a sugarcane cropping soil from South Johnstone in northern Queensland (17° 34′S, 145° 57′ E) was also studied. The water content of the soil was calculated before commencing each experiment, from samples that were oven-dried to constant weight. The soil's water-filled pore space (WFPS) was in the range 52%-61%, which is within the recommended 50-70% range for microbial activity due to oxygen and nutrient availability (Fichtner, T., et al., Applied Sciences, 2019, 9, 496).
(§2) Soil microcosm incubations were carried out in 250 ml polypropylene specimen containers (Sarstedt, Germany), containing 18.24 g oven dry-weight equivalent of soil. Microcosms were re-wetted and pre-incubated at the test temperature for seven days to revive soil microbial activity. Following pre-incubation, the remaining volume to reach the desired water-filled pore spaces (WFPS %) was applied as one of the following treatment solutions; (NH4)2SO4(Control), (NH4)2SO4+DMPP, or (NH4)2SO4+one of Compounds 1-23. Each treatment was applied in triplicate per soil type, so that n=3 at each time point.
(§3) Treatment solutions were prepared such that each microcosm received (NH4)2SO4 at a rate of 100 mg N per kg soil, Compounds 1-23 at 10 mol % of applied N, or DMPP at one of 1.5, 3.6 or 10 mol % of applied N, referred to as L-DMPP, M-DMPP or H-DMPP respectively.
(§4) The microcosms were incubated for 0, 3, 7, 14, 21 or 28 days, where day 0 samples were extracted following 1-hour incubation post-treatment. Soil microcosms were aerated and moisture levels were replenished based on weight loss every few days throughout the incubation period.
(§5) At the end of each incubation period, soil microcosms were destructively sampled by treatment with 2M KCl (100 mL). After shaking for 1 hour, soil-KCl solutions were filtered (Whatman 42) before storing the filtrates at −20° C. until the conclusion of the experiment. All KCl extracts were then analysed by Segmented Flow Analysis (San++, Skalar, Breda, The Netherlands) for the concentration of nitrogen from ammonium (NH4^+—N) and nitrogen from NO3 and NO2 (NOx^−—N) after appropriate dilutions. Results are reported as the mean of three replicates, errors reported are standard errors of the mean.
(§6) Nitrification calculations were performed as previously reported (Aulakh, M., et al., Biology and Fertility of Soils 2001, 33, 258-263; Mahmood, T., et al., Soil Research 2017, 55, 715-722) without correction for the initial baseline concentrations of NH4^+—N or NO3^− N in the untreated soil. For each treatment nitrified NH4^+—N (%) was calculated according to eqn. 1:
(§7) where [NH4^+—N]0 is the NH4^+—N concentration (in mg N kg^−1 soil) of the soil on day 0 and [NH4^+—N]t is the NH4^+—N concentration (in mg N kg^−1 soil) of the soil at a given time point t.
(§8) NOx^−—N accumulation rates (mg NOx^−—N/kg soil/day) over the 28-day incubation experiments were calculated for each treatment as in the following (eqn. 2):
(§9) [NOx^−—N]t=0 and [NOx^−—N]t=28 are the combined concentrations of nitrite (NO2) and nitrate (NO3) in the soil (in mg N kg^−1 soil) on day 0 and day 28, respectively.

[2] = test system: Dahlen soil; experiment: Soil microcosm incubation (nitrification of applied ammonium), Dahlen soil; details: for Nitrified NH4+—N (%) Day 3 / Nitrified NH4+—N (%) Day 7 / Nitrified NH4+—N (%) Day 14 / Nitrified NH4+—N (%) Day 21 / Nitrified NH4+—N (%) Day 28: 10 mol %
Protocol: as §1, §2, §3, §4, §5, §6, §7, §8, §9

[3] = test system: South Johnstone soil; experiment: Soil microcosm incubation (nitrification of applied ammonium), South Johnstone soil; details: for Nitrified NH4+—N (%) Day 3 / Nitrified NH4+—N (%) Day 7 / Nitrified NH4+—N (%) Day 14 / Nitrified NH4+—N (%) Day 21 / Nitrified NH4+—N (%) Day 28: 10 mol %
Protocol: as §1, §2, §3, §4, §5, §6, §7

[4] = test system: Terang soil; experiment: Soil microcosm incubation (nitrification of applied ammonium), Terang soil
Protocol: as §1, §2, §3, §4, §5, §6, §7

[5] = ranging from no effect; cited from earlier work
[6] = Horsham soil pH 8.8, 25° C., inhibitors 10 mol % of applied N
[7] = Horsham soil pH 8.8, 25° C., 10 mol %
[8] = Horsham soil pH 8.8, 35° C., 10 mol %
[9] = Dahlen soil, 35° C., after 28 days
[10] = Table 4, Dahlen soil pH 7.3, 25° C.
[11] = Table 4, Dahlen soil pH 7.3, 35° C.
[12] = South Johnstone soil pH 5.0, 25° C., negative = NH4+—N higher than day 0 (mineralisation)
[13] = South Johnstone soil pH 5.0, 25° C.
[14] = South Johnstone soil pH 5.0, 25° C., day 28
[15] = South Johnstone soil pH 5.0, 35° C.
[16] = South Johnstone soil pH 5.0, 35° C., day 28
[17] = Table 5, Dahlen soil pH 7.3, 25° C.
[18] = Table 5, Dahlen soil pH 7.3, 35° C.

CCCc1cn(CCC)nn1 [Compound 16, 1,4-dipropyl-1H-1,2,3-triazole]
Nitrified NH4+—N (%) Day 3 [1, 6]: 8.9 ± 3.4% | Nitrified NH4+—N (%) Day 7 [1, 7]: 24.9 ± 3.0% | Nitrified NH4+—N (%) Day 14 [1, 7]: 44.2 ± 3.3% | Nitrified NH4+—N (%) Day 21 [1, 7]: 57.5 ± 3.4% | Nitrified NH4+—N (%) Day 28 [1, 7]: 70.9 ± 3.9% | Nitrified NH4+—N (%) Day 3 [1, 8]: 2.5 ± 4.5% | Nitrified NH4+—N (%) Day 7 [1, 8]: 22.3 ± 4.3% | Nitrified NH4+—N (%) Day 14 [1, 8]: 42.3 ± 4.6% | Nitrified NH4+—N (%) Day 21 [1, 8]: 74.9 ± 6.1% | Nitrified NH4+—N (%) Day 28 [1, 8]: 83.7 ± 6.1% | retaining NH4+ vs uninhibited control treatment ([1]; Horsham soil, 25° C., after 28 days): performed statistically better | nitrification rates vs uninhibited control treatment ([1]; Horsham soil, 35° C.): lower nitrification rates than the uninhibited control treatment | retaining NH4+—N vs uninhibited control treatment and DMPP ([2]; Dahlen soil, 25° C., after 28 days): performed statistically better | NOx−—N accumulation rate ([2]; Dahlen soil, 35° C., 28-day incubation): 1.8 mg NOx−—N/kg soil/day | ammonia consumption [2, 9]: 17% | retaining NH4+ vs both DMPP treatment and control treatment [2, 9]: performed statistically better | Nitrified NH4+—N (%) Day 3 [2, 10]: 8.8 ± 3.3% | Nitrified NH4+—N (%) Day 7 [2, 10]: 15.6 ± 5.0% | Nitrified NH4+—N (%) Day 14 [2, 10]: 16.4 ± 28.7% | Nitrified NH4+—N (%) Day 21 [2, 10]: 26.9 ± 4.6% | Nitrified NH4+—N (%) Day 28 [2, 10]: 37.3 ± 4.4% | Nitrified NH4+—N (%) Day 3 [2, 11]: 1.5 ± 1.4% | Nitrified NH4+—N (%) Day 7 [2, 11]: 6.0 ± 1.5% | Nitrified NH4+—N (%) Day 14 [2, 11]: 16.1 ± 4.5% | Nitrified NH4+—N (%) Day 21 [2, 11]: 29.8 ± 1.2% | Nitrified NH4+—N (%) Day 28 [2, 11]: 16.9 ± 2.6% | Nitrified NH4+—N (%) Day 3 [3, 12]: −6.3 ± 0.8% | Nitrified NH4+—N (%) Day 7 [3, 13]: −11.5 ± 0.8% | Nitrified NH4+—N (%) Day 14 [3, 13]: −14.4 ± 0.7% | Nitrified NH4+—N (%) Day 21 [3, 13]: −16.8 ± 1.2% | Nitrified NH4+—N (%) Day 28 [3, 14]: −13.2 ± 0.7% | Nitrified NH4+—N (%) Day 3 [3, 15]: −14.7 ± 1.9% | Nitrified NH4+—N (%) Day 7 [3, 15]: −26.3 ± 1.7% | Nitrified NH4+—N (%) Day 14 [3, 15]: −35.7 ± 2.4% | Nitrified NH4+—N (%) Day 21 [3, 15]: −35.7 ± 0.6% | Nitrified NH4+—N (%) Day 28 [3, 16]: −18.4 ± 2.3% | retaining NH4+—N vs DMPP ([3]; South Johnstone soil, 35° C.): performed statistically better than DMPP | retaining NH4+—N and slowing NOx−—N growth vs fertilised control ([3]; South Johnstone soil, 35° C., day 28): performed statistically better than the fertilised control

Cc1c[nH]nc1C.O=P(O)(O)O [DMPP, 3,4-dimethylpyrazole phosphate, reference compound]
Nitrified NH4+—N (%) Day 3 ([4]; Terang soil pH 6.5, 25° C., day 3, compounds 10 mol % of applied N, L-DMPP 1.5 mol %, (NH4)2SO4 100 mg N per kg soil): 23.5 ± 3.7% | Nitrified NH4+—N (%) Day 7 ([4]; Terang soil pH 6.5, 25° C., day 7, compounds 10 mol %, L-DMPP 1.5 mol %): 47.8 ± 2.0% | Nitrified NH4+—N (%) Day 14 ([4]; Terang soil pH 6.5, 25° C., day 14, compounds 10 mol %, L-DMPP 1.5 mol %): 89.6 ± 3.1% | Nitrified NH4+—N (%) Day 28 ([4]; Terang soil pH 6.5, 25° C., day 28, compounds 10 mol %, L-DMPP 1.5 mol %): 100 ± 2.5% | retaining NH4+—N in the soil compared with the fertilised control ([4]; Terang soil, 25° C.): most effective treatments | Nitrified NH4+—N (%) Day 3 [1, 6]: −6.9 ± 2.8% | Nitrified NH4+—N (%) Day 7 [1, 7]: 8.5 ± 2.8% | Nitrified NH4+—N (%) Day 14 [1, 7]: 37.2 ± 2.3% | Nitrified NH4+—N (%) Day 21 [1, 7]: 75.7 ± 5.4% | Nitrified NH4+—N (%) Day 28 [1, 7]: 76.2 ± 2.1% | Nitrified NH4+—N (%) Day 3 [1, 8]: 7.9 ± 3.0% | Nitrified NH4+—N (%) Day 7 [1, 8]: 18.9 ± 2.8% | Nitrified NH4+—N (%) Day 14 [1, 8]: 32.3 ± 4.1% | Nitrified NH4+—N (%) Day 21 [1, 8]: 46.6 ± 5.9% | Nitrified NH4+—N (%) Day 28 [1, 8]: 64.5 ± 12.7% | NOx−—N accumulation: effect of temperature (25° C. vs 35° C.) ([1]; Horsham soil, 28-day incubation): greatest increase in production rate at the higher test temperature | retaining NH4+ and preventing NOx production (statistics vs control) ([1]; Horsham soil, 35° C.): performed statistically better | NH4+—N consumption ([1]; Horsham soil, 35° C., after 28 days): 65% | performance at higher temperature ([2]; Dahlen soil, 35° C. vs 25° C.): performed significantly poorer at the higher temperature | retaining NH4+—N vs (NH4)2SO4-treated control by day 28 ([2]; Dahlen soil, 35° C., Table 5 test): remain highly effective | nitrified ammonia ([2]; Dahlen soil, 35° C., day 21 (Table 5)): 52% | Nitrified NH4+—N (%) Day 3 [2, 10]: 2.1 ± 2.8% | Nitrified NH4+—N (%) Day 7 [2, 10]: 11.7 ± 6.7% | Nitrified NH4+—N (%) Day 14 [2, 10]: 17.3 ± 12.7% | Nitrified NH4+—N (%) Day 21 [2, 10]: 18.2 ± 6.6% | Nitrified NH4+—N (%) Day 28 [2, 10]: 18.6 ± 4.9% | Nitrified NH4+—N (%) Day 3 [2, 11]: 2.4 ± 3.0% | Nitrified NH4+—N (%) Day 7 [2, 11]: 24.8 ± 2.7% | Nitrified NH4+—N (%) Day 14 [2, 11]: 25.6 ± 3.8% | Nitrified NH4+—N (%) Day 21 [2, 11]: 48.3 ± 6.4% | Nitrified NH4+—N (%) Day 28 [2, 11]: 60.5 ± 8.4% | Nitrified NH4+—N (%) Day 3 ([2]; Table 5 (further comparative test), Dahlen soil pH 7.3, 25° C.): 4.9 ± 3.1% | Nitrified NH4+—N (%) Day 7 [2, 17]: 11.0 ± 3.2% | Nitrified NH4+—N (%) Day 14 [2, 17]: 17.4 ± 4.2% | Nitrified NH4+—N (%) Day 21 [2, 17]: 28.7 ± 5.2% | Nitrified NH4+—N (%) Day 28 [2, 17]: 21.8 ± 3.3% | Nitrified NH4+—N (%) Day 3 [2, 18]: 15.3 ± 2.9% | Nitrified NH4+—N (%) Day 7 [2, 18]: 15.8 ± 2.5% | Nitrified NH4+—N (%) Day 14 [2, 18]: 16.0 ± 6.0% | Nitrified NH4+—N (%) Day 21 [2, 18]: 51.5 ± 5.4% | Nitrified NH4+—N (%) Day 28 [2, 18]: 38.5 ± 2.9% | Nitrified NH4+—N (%) Day 3 [3, 12]: −12.5 ± 8.8% | Nitrified NH4+—N (%) Day 7 [3, 13]: −10.3 ± 0.7% | Nitrified NH4+—N (%) Day 14 [3, 13]: −12.5 ± 0.6% | Nitrified NH4+—N (%) Day 21 [3, 13]: −12.0 ± 1.6% | Nitrified NH4+—N (%) Day 28 [3, 14]: −7.5 ± 0.5% | Nitrified NH4+—N (%) Day 3 [3, 15]: −12.3 ± 1.2% | Nitrified NH4+—N (%) Day 7 [3, 15]: −25.3 ± 0.9% | Nitrified NH4+—N (%) Day 14 [3, 15]: −28.1 ± 1.3% | Nitrified NH4+—N (%) Day 21 [3, 15]: −23.0 ± 2.3% | Nitrified NH4+—N (%) Day 28 [3, 16]: −0.90 ± 2.3% | effectiveness among the treatments (NH4+—N retention, NOx−—N growth) ([3]; South Johnstone soil, 25° C., days 21 and 28): least effective | inhibition in field studies for reducing leaching and N2O emissions [5]: ≤ 70%
